Test results taken from patent US8148097B2, “Screening method for identification of compounds with calcium-independent phospholipase A2β (iPLA2β) modulating activity” (Washington University, priority 2005, dated 2012).

Experiments:
[1] = target: T1, iPLA2β (Cricetulus griseus, UniProt A0A3L7I2I8); test: Real-time fluorescence BODIPY-PC assay of iPLA2β phospholipase A2 activity; assay type: biochemical
T1 construct: (His)6; made in house; host or cells: Sf9 insect cells (baculovirus)
T1 sequence (A0A3L7I2I8 1-752 isoform A0A3L7I2I8-2): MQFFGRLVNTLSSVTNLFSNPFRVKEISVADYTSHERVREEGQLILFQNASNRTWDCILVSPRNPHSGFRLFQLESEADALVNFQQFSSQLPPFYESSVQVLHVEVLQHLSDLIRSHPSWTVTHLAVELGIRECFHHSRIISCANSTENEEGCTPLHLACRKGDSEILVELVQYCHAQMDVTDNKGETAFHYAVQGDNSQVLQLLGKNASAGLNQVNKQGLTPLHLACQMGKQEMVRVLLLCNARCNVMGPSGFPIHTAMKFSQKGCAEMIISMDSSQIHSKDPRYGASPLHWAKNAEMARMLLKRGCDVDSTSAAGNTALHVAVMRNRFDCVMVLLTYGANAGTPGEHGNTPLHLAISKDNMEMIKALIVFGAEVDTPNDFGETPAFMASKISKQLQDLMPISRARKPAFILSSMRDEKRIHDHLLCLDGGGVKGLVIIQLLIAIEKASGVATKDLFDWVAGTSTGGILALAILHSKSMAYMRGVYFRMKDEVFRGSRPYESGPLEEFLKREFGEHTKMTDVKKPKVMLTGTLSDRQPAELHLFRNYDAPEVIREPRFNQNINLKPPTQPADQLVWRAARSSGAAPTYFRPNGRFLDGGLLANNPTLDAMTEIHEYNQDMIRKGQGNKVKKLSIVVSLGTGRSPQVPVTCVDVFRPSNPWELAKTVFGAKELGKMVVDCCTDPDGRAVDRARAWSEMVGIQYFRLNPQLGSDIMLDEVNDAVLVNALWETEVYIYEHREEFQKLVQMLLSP
Method: FIGS. 11A-11D—Purified iPLA2β+/−Ca^2+/CaM was incubated with POPC/BODIPY-PC (95:5 mol %) host vesicles for 2 min at 37° C. with the indicated concentrations of guest oleoyl-CoA. Relative fluorescence was recorded utilizing 495 nm excitation and 515 nm emission wavelengths as described in Experimental Procedures. FIGS. 11E-11H—ESI-MS analysis of phosphatidylcholine molecular species from the reactions described in panels A and D. Spectra were acquired in the positive ion mode with the indicated internal standards as described in Experimental Procedures. FIG. 11I—Purified iPLA2β in the presence or absence of Ca^2+/CaM was incubated with 1-palmitoyl-2-[1-^14C]-oleoyl-sn-glycero-3-phosphocholine (100 μM) host vesicles with or without guest oleoyl-CoA (10 μM) for 3 min at 37° C. Radiolabeled fatty acid was extracted into butanol, resolved by TLC, and quantified by scintillation spectrometry as described in Experimental Procedures.
Phospholipase A2 and Acyl-CoA Hydrolase Enzymatic Assays—Purified recombinant iPLA2β(His)6 (peptide disclosed as SEQ ID NO: 4) (0.1-1 μg) was incubated with radiolabeled phospholipid or acyl-CoA in 25 mM Tris-HCl, pH 7.2 containing 1 mM EGTA (200 μl final volume) for 1-2 mm at 37° C. […] Incorporation of acyl-CoA into the POPC/DOPS vesicles employed was determined as described previously (64). Reactions were terminated by extraction of the released radiolabeled fatty acids into 100 μl butanol, separation of fatty acids from unreacted substrate by thin layer chromatography, and quantitation by scintillation spectroscopy as previous described (65). For tests examining the effects of acyl-CoAs on calmodulin-mediated inhibition of iPLA2β, phospholipase A2 activity was continuously measured utilizing a SPECTRAmax GEMINI XS Dual-Scanning Microplate Spectrofluorometer (Molecular Devices). […] Fluorescence readings were acquired at 20 sec intervals for 5 mm at 37° C. utilizing excitation/emission wavelengths of 495/515 nm, respectively. […]

[2] = target: T1, iPLA2β; test: iPLA2β phospholipase A2 activity with radiolabeled POPC substrate; assay type: biochemical; details: oleoyl-CoA 10 μM, [14C]-POPC substrate, FIG. 11I
Method: FIG. 9—Calcium-independent iPLA2β was pre-incubated in the presence of Ca^2+ (1 mM) or Ca^2+-CaM (3 μg) on ice before addition to 95 μM POPC containing either 5 mol % [1-^14C]-POPC or [1-^14C]-palmitoyl-CoA in 100 mM Tris-HCl, pH 7.2. After incubation at 37° C. for 3 min, reactions were terminated by vortexing in the presence of butanol and released radiolabeled fatty acids were resolved by TLC and quantitated by liquid scintillation spectrometry as described in Experimental Procedures.
FIGS. 11A-11D—Purified iPLA2β+/−Ca^2+/CaM was incubated with POPC/BODIPY-PC (95:5 mol %) host vesicles for 2 min at 37° C. with the indicated concentrations of guest oleoyl-CoA. Relative fluorescence was recorded utilizing 495 nm excitation and 515 nm emission wavelengths as described in Experimental Procedures. […] Radiolabeled fatty acid was extracted into butanol, resolved by TLC, and quantified by scintillation spectrometry as described in Experimental Procedures.
Phospholipase A2 and Acyl-CoA Hydrolase Enzymatic Assays—Purified recombinant iPLA2β(His)6 (peptide disclosed as SEQ ID NO: 4) (0.1-1 μg) was incubated with radiolabeled phospholipid or acyl-CoA in 25 mM Tris-HCl, pH 7.2 containing 1 mM EGTA (200 μl final volume) for 1-2 mm at 37° C. […] Incorporation of acyl-CoA into the POPC/DOPS vesicles employed was determined as described previously (64). […]

CCCCCCCC/C=C\CCCCCCCC(=O)SCCNC(=O)CCNC(=O)[C@H](O)C(C)(C)COP(=O)(O)OP(=O)(O)OC[C@H]1O[C@@H](n2cnc3c(N)ncnc32)[C@H](O)[C@@H]1OP(=O)(O)O [oleoyl-CoA] was tested, and the “reversal of calmodulin-mediated inhibition of iPLA2β phospholipase A2 activity” value ([1]; 5 μM oleoyl-CoA) was “significant reversal”, the “activity of CaM-inhibited iPLA2β, % of initial activity” value ([1]; 1 mol % oleoyl-CoA, FIG. 11B) was “≈ 40%” and the “effect on CaM mediated inhibition of iPLA2β” value ([1]; 2.5-5 mol % oleoyl-CoA, FIG. 11C-D) was “completely eliminated CaM mediated inhibition”. The inhibition at 10 µM ([2]; no CaM, read-out: inhibition of iPLA2β activity by oleoyl-CoA alone) was 20% and the “activity of CaM-inhibited iPLA2β, % of the activity observed with oleoyl-CoA alone” value [2] was “approximately 75%”.
